Experiments:
barnyardgrass = experiment: Test C postemergence; format: in vivo, Echinochloa crus-galli
Method in brief: (§1)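 Greenhouse herbicide screen. Pre: seeded loam/sand, sprayed at planting. Post: 1–4 leaf plants (2–18 cm) in peat-based mix. Formulation: solvent mixture + surfactant, non-phytotoxic. Readout: visual % control vs untreated, 13–15 d; dash = not tested.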

kochia = experiment: Test C postemergence; format: in vivo, Kochia scoparia
Method in brief: as §1

pigweed = experiment: Test C preemergence; format: in vivo, Amaranthus retroflexus; details: preemergence
Method in brief: as §1

blackgrass = experiment: Test C postemergence; format: in vivo, Alopecurus myosuroides
Method in brief: as §1

giant foxtail [1] = experiment: Test C postemergence; format: in vivo, Setaria faberii
Method in brief: as §1

giant foxtail [2] = experiment: Test A postemergence; format: in vivo, Setaria faberii; details: 0 to 100 scale where 0 is no effect and 100 is complete control
Method in brief: (§2)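 Visual 0–100 rating (100 = complete control) taken about 10 d post-treatment relative to untreated checks. Preemergence: directed soil spray on sown loam/sand pots. Postemergence: seedlings 2–10 cm, 1–2 leaf. Non-phytotoxic solvent formulation with surfactant.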

corn [3] = experiment: Test C postemergence; format: in vivo, Zea mays
Method in brief: as §1

yellow nutsedge = experiment: Test C postemergence; format: in vivo, Cyperus esculentus
Method in brief: as §1

large (Lg) crabgrass = experiment: Test C preemergence; format: in vivo, Digitaria sanguinalis; details: for Crabgrass, Large plant response rating: preemergence
Method in brief: as §1

lambsquarters = experiment: Test C preemergence; format: in vivo, Chenopodium album; details: preemergence
Method in brief: as §1

corn [4] = experiment: Test A postemergence; format: in vivo, Zea mays; details: 0 to 100 scale where 0 is no effect and 100 is complete control
Method in brief: as §2

wheat, winter = experiment: Test C postemergence; format: in vivo, Triticum aestivum
Method in brief: as §1

corn [5] = experiment: Test C preemergence; format: in vivo, Zea mays; details: for Corn plant response rating: preemergence
Method in brief: as §1

[6] = 16 g ai/ha, postemergence, 0 is no effect, 100 is complete control
[7] = 31 g ai/ha, postemergence, visual rating, scale 0 to 100 (0 no effect, 100 complete control), 13 to 15 days
[8] = 125 g ai/ha, postemergence, visual rating, scale 0 to 100 (0 no effect, 100 complete control)
[9] = Postemergence, 62 g ai/ha, scale 0 to 100 (0 no effect, 100 complete control)
[10] = 16 g ai/ha, scale 0 to 100 (0 no effect, 100 complete control)
[11] = 62 g ai/ha, scale 0 (no effect) to 100 (complete control)
[12] = 125 g ai/ha, scale 0 (no effect) to 100 (complete control)
[13] = Preemergence, 31 g ai/ha, scale 0 to 100, 0 no effect, 100 complete control

## FC(F)(F)c1cnn(-c2c(Cl)cccc2Oc2ncc(Cl)cn2)c1 [Compound 167]
barnyardgrass; [6]
  Plant response rating (0 to 100), Barnyardgrass: 5
barnyardgrass; [7]
  Barnyardgrass plant response rating: 5
barnyardgrass; [8]
  Plant response rating, Barnyardgrass: 10
barnyardgrass; [9]
  Plant response rating, Barnyardgrass: 10
kochia; [6]
  Plant response rating (0 to 100), Kochia: 90
kochia; [7]
  Kochia plant response rating: 90
kochia; [8]
  Plant response rating, Kochia: 95
kochia; [9]
  Plant response rating, Kochia: 90
pigweed; [10]
  Pigweed plant response rating: 100
pigweed; [11]
  Pigweed plant response rating: 100
pigweed; [12]
  Pigweed plant response rating: 100
blackgrass; [6]
  Plant response rating (0 to 100), Blackgrass: 0
blackgrass; [7]
  Blackgrass plant response rating: 5
blackgrass; [8]
  Plant response rating, Blackgrass: 30
blackgrass; [9]
  Plant response rating, Blackgrass: 5
Giant foxtail [1]; [6]
  Plant response rating (0 to 100), Foxtail, Giant: 10
Giant foxtail [1]; [7]
  Foxtail, Giant plant response rating: 10
Giant foxtail [1]; [8]
  Plant response rating, Foxtail, Giant: 30
Giant foxtail [1]; [9]
  Plant response rating, Foxtail, Giant: 10
Giant foxtail [2]; 125 g ai/ha
  Foxtail, Giant plant response rating: 90
Giant foxtail [2]; 500 g ai/ha
  Plant response rating, Foxtail, Giant: 90
Corn [3]; [6]
  Plant response rating (0 to 100), Corn: 5
Corn [3]; [7]
  Corn plant response rating: 5
Corn [3]; [8]
  Plant response rating, Corn: 15
Corn [3]; [9]
  Plant response rating, Corn: 10
Yellow nutsedge; [6]
  Plant response rating (0 to 100), Nutsedge, Yellow: 0
Yellow nutsedge; [7]
  Nutsedge, Yellow plant response rating: 0
Yellow nutsedge; [8]
  Plant response rating, Nutsedge, Yellow: 20
Yellow nutsedge; [9]
  Plant response rating, Nutsedge, Yellow: 5
Large (Lg) crabgrass; [10]
  Crabgrass, Large plant response rating: 75
Large (Lg) crabgrass; [11]
  Crabgrass, Large plant response rating: 100
Large (Lg) crabgrass; [12]
  Crabgrass, Large plant response rating: 100
Large (Lg) crabgrass; [13]
  Plant response rating, Crabgrass, Large: 98
lambsquarters; [10]
  Lambsquarters plant response rating: 75
lambsquarters; [11]
  Lambsquarters plant response rating: 100
lambsquarters; [12]
  Lambsquarters plant response rating: 100
Corn [4]; 125 g ai/ha
  Corn plant response rating: 40
Corn [4]; 500 g ai/ha
  Plant response rating, Corn: 50
wheat, winter; [6]
  Plant response rating (0 to 100), Wheat: 0
wheat, winter; [7]
  Wheat plant response rating: 0
wheat, winter; [8]
  Plant response rating, Wheat: 5
wheat, winter; [9]
  Plant response rating, Wheat: 5
Corn [5]; [10]
  Corn plant response rating: 0
Corn [5]; [11]
  Corn plant response rating: 25
Corn [5]; [12]
  Corn plant response rating: 60
Corn [5]; [13]
  Plant response rating, Corn: 5
